For this assay, the target named is human CTPS1 (Homo sapiens (Human), UniProt P17812). The assay is described as follows: hCTPS1 biochemical assay (ADP-Glo). The settings on record: hCTPS1 25 nM, ATP 120 uM, UTP 160 uM, GTP 60 uM, L-Glutamine 100 uM, 25 degrees C.

Structures are written as SMILES.

Chain of human CTPS1 (P17812 whole entry): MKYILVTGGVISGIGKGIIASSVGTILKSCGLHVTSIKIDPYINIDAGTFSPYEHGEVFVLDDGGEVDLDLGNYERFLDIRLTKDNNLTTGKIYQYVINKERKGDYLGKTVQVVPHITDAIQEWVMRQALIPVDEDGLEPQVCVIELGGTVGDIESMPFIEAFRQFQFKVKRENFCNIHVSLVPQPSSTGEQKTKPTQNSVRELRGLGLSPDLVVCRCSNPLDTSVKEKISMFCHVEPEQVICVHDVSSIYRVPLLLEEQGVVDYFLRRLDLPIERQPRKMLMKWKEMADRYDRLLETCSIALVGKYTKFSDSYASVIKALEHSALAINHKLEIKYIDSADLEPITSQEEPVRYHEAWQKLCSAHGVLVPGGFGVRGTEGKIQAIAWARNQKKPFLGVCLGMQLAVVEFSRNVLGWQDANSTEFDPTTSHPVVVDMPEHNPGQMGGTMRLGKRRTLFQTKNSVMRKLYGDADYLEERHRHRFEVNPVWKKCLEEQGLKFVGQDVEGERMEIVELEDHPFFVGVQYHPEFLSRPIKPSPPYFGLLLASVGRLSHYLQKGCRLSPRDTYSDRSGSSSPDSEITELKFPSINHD

For orientation: IC50 means the concentration at which inhibition is half-maximal. The low end stands for higher potency, the high end for lower potency. As to `CCOc1cncc(-c2sc(C(=O)N[C@@H](CC)c3cc(NS(=O)(=O)C4CC4)ccn3)nc2C)n1` [I-219, (S)—N-(1-(4-(cyclopropanesulfonamido)pyridin-2-yl)propyl)-5-(6-ethoxypyrazin-2-yl)-4-methylthiazole-2-carboxamide], the IC50 is under 100 nM.
In the case of `CCOc1cncc(-c2sc(C(=O)N[C@H](CC)c3cc(NS(=O)(=O)C4CC4)ccn3)nc2C)n1` [I-220, (R)—N-(1-(4-(cyclopropanesulfonamido)pyridin-2-yl)propyl)-5-(6-ethoxypyrazin-2-yl)-4-methylthiazole-2-carboxamide] it was under 100 nM; in that of `CCOc1cncc(-c2cnc(C(=O)N3CCNCC3c3cc(NS(=O)(=O)C4CC4)ccn3)s2)n1` (stereo not shown) [I-223, N-(2-(1-(5-(6-ethoxypyrazin-2-yl)thiazole-2-carbonyl)piperazin-2-yl)pyridin-4-yl)cyclopropanesulfonamide], 100 to 1000 nM.
On to `CCOc1cncc(-c2cnc(C(=O)NC(CN3CCCCC3)c3cc(NS(=O)(=O)C4CC4)ccn3)s2)n1` (stereo not shown) [I-224], for which the IC50 is under 100 nM.
Take `CCOc1cncc(-c2cnc(C(=O)N3CCC[C@@H]3c3cncc(NS(=O)(=O)C4CC4)c3)s2)n1` [I-225, (R)—N-(5-(1-(5-(6-ethoxypyrazin-2-yl)thiazole-2-carbonyl)pyrrolidin-2-yl)pyridin-3-yl)cyclopropanesulfonamide]: the IC50 is under 100 nM.
For the compound `CCOc1cncc(-c2cnc(C(=O)N3CCC[C@H]3c3cncc(NS(=O)(=O)C4CC4)c3)s2)n1` [I-226, (S)—N-(5-(1-(5-(6-ethoxypyrazin-2-yl)thiazole-2-carbonyl)pyrrolidin-2-yl)pyridin-3-yl)cyclopropanesulfonamide], the IC50 is 100 to 1000 nM.
Then `CCOc1cncc(-c2sc(C(=O)NC(CC)c3cc(NS(=O)(=O)C4CC4)ccn3)nc2C)n1` (stereo not shown) [I-227], with under 100 nM; and `CCOc1cncc(-c2cnc(C(=O)NC(CN3CCC3)c3cc(NS(=O)(=O)C4CC4)ccn3)s2)n1` (stereo not shown) [I-228], with under 100 nM; and `CCOc1cncc(-c2cnc(C(=O)NCc3cc(NS(=O)(=O)C4CC4)ccn3)c(CN(C)C)c2)n1` [I-229], with 100 to 1000 nM.
Then `CCOc1cncc(-c2cnc(C(=O)N3CCC[C@@H]3c3cccc(NS(=O)(=O)C4CC4)n3)s2)n1` [I-230, N-[6-[(2R)-1-[5-(6-ethoxypyrazin-2-yl)-1,3-thiazole-2-carbonyl]pyrrolidin-2-yl]pyridin-2-yl]cyclopropanesulfonamide], with under 100 nM; and `CCOc1cncc(-c2cnc(C(=O)N3CCC[C@H]3c3cccc(NS(=O)(=O)C4CC4)n3)s2)n1` [I-231, N-[6-[(2S)-1-[5-(6-ethoxypyrazin-2-yl)-1,3-thiazole-2-carbonyl]pyrrolidin-2-yl]pyridin-2-yl]cyclopropanesulfonamide], with 100 to 1000 nM; and `CCOc1cncc(-c2cnc(C(=O)N3CCCC3c3cncc(NS(=O)(=O)C4CC4)c3)s2)n1` (stereo not shown) [I-232, N-(5-(1-(5-(6-ethoxypyrazin-2-yl)thiazole-2-carbonyl)pyrrolidin-2-yl)pyridin-3-yl)cyclopropanesulfonamide], with under 100 nM.
In the case of `O=C(NCc1cc(NS(=O)(=O)C2CC2)ccn1)c1ncc(-c2cnn3ccccc23)s1` [I-237, N-((4-(cyclopropanesulfonamido)pyridin-2-yl)methyl)-5-(pyrazolo[1,5-a]pyridin-3-yl)thiazole-2-carboxamide] it was 100 to 1000 nM.
The compound `CCOc1cncc(-n2cnc(C(=O)NCc3cc(NS(=O)(=O)C4CC4)ccn3)c2)n1` [I-238] yielded an IC50 of 100 to 1000 nM.
In the case of `CCOc1cncc(-c2nnc(C(=O)N[C@@H](CC)c3cc(NS(=O)(=O)C4CC4)ccn3)s2)n1` [I-239] it was under 100 nM; in that of `CCOc1cncc(-c2cnc(C(=O)NC(CN(C)C)c3cc(NS(=O)(=O)C4CC4)ccn3)s2)n1` (stereo not shown) [I-241], under 100 nM; in that of `CCOc1cncc(-c2cnc(C(=O)NCc3cc(NS(=O)(=O)C4CC4)ccn3)s2)c1` [I-242, N-((4-(cyclopropanesulfonamido)pyridin-2-yl)methyl)-5-(5-ethoxypyridin-3-yl)thiazole-2-carboxamide], under 100 nM.
In the case of `O=C(NCc1cc(NS(=O)(=O)C2CC2)ccn1)c1ncc(-c2cncc(OCC(F)(F)F)n2)s1` [I-243] it was under 100 nM.
Take `CCOc1cncc(-n2cc(C(=O)NCc3cc(NS(=O)(=O)C4CC4)ccn3)cn2)n1` [I-244]: the IC50 was 100 to 1000 nM.
In the case of `CCOc1cncc(-c2cnc(C(=O)NC(CN3CCOCC3)c3cc(NS(=O)(=O)C4CC4)ccn3)s2)n1` (stereo not shown) [I-245] it was under 100 nM; in that of `CCOc1cncc(-c2ccc(C(=O)NCc3cnnc(NS(=O)(=O)C4CC4)c3)nc2)n1` [I-246, N-[(6-cyclopropanesulfonamidopyridazin-4-yl)methyl]-5-(6-ethoxypyrazin-2-yl)pyridine-2-carboxamide], under 100 nM.
In the case of `CCOc1cncc(-c2cnc(C(=O)N[C@@H](CN3CCOCC3)c3cccc(NS(=O)(=O)C(F)F)c3)s2)n1` [I-247, (R)—N-(1-(3-((difluoromethyl)sulfonamido)phenyl)-2-morpholinoethyl)-5-(6-ethoxypyrazin-2-yl)thiazole-2-carboxamide] it was under 100 nM; in that of `CCOc1cncc(-c2cnc(C(=O)NCc3c(F)ccc(NS(=O)(=O)C4CC4)c3F)s2)n1` [I-248, N-[(3-cyclopropanesulfonamido-2,6-difluorophenyl)methyl]-5-(6-ethoxypyrazin-2-yl)-1,3-thiazole-2-carboxamide], under 100 nM.
In the case of `CCOc1cncc(-c2cnc(C(=O)NCc3cc(F)cc(NS(=O)(=O)C4CC4)c3F)s2)n1` [I-250, N-[(3-cyclopropanesulfonamido-2,5-difluorophenyl)methyl]-5-(6-ethoxypyrazin-2-yl)-1,3-thiazole-2-carboxamide] it was under 100 nM.
`O=C(NCc1cc(NS(=O)(=O)C2CC2)ccn1)c1ncc(-c2cncc(C(F)(F)F)c2)s1` [I-251, N-((4-(cyclopropanesulfonamido)pyridin-2-yl)methyl)-5-(5-(trifluoromethyl)pyridin-3-yl)thiazole-2-carboxamide] returned an IC50 of 100 to 1000 nM.
Consider `O=C(NCc1cc(NS(=O)(=O)C2CC2)ccn1)c1ncc(-c2cncc(Cl)c2)s1` [I-252], for which the IC50 was under 100 nM.
In the case of `O=C(NCc1cc(NS(=O)(=O)C2CC2)ccn1)c1ncc(-c2cncc(C(F)(F)F)n2)s1` [I-253] it was under 100 nM.
In the case of `O=C(NCc1cc(NS(=O)(=O)C2CC2)ccn1)c1ccc(-c2cncc(C(F)(F)F)n2)cc1F` [I-254] it was 100 to 1000 nM; in that of `CCOc1cncc(-c2cnc(C(=O)NCc3cc(F)c(F)c(NS(=O)(=O)C4CC4)c3)s2)n1` [I-255, N-[(3-cyclopropanesulfonamido-4,5-difluorophenyl)methyl]-5-(6-ethoxypyrazin-2-yl)-1,3-thiazole-2-carboxamide], at least 1000 nM.
Then `CCOc1cncc(-c2ccc(C(=O)NCc3nccc(NS(=O)(=O)C4CC4)c3OC)c(F)c2)n1` [I-257, N-[(4-cyclopropanesulfonamido-3-methoxypyridin-2-yl)methyl]-4-(6-ethoxypyrazin-2-yl)-2-fluorobenzamide], with under 100 nM; and `CCOc1cncc(-c2ccc(NC(=O)[C@@](F)(CC)c3cc(NS(=O)(=O)C4CC4)ccn3)nc2)n1` [I-258, (R)-2-(4-(cyclopropanesulfonamido)pyridin-2-yl)-N-(5-(6-ethoxypyrazin-2-yl)pyridin-2-yl)-2-fluorobutanamide], with under 100 nM.

The record behind these values is patent US12331046B2, “CTPS1 inhibitors and uses thereof” (Nimbus Clotho, Inc., priority 2020, dated 2025).
